Reference: ChEMBL document CHEMBL3797190, “Development of 3,5-Dinitrobenzylsulfanyl-1,3,4-oxadiazoles and Thiadiazoles as Selective Antitubercular Agents Active Against Replicating and Nonreplicating Mycobacterium tuberculosis” (J Med Chem, 2016)
Converted amounts (≈) assume the structure as drawn. The source made the active and inactive calls. The calls are words filed in the database; no cut-off is given here.

Experiments:
Mycobacterium kansasii [1] = test: Antimycobacterial activity against Mycobacterium kansasii CNCTC My 235/80 after 14 days by microdilution method; assay type: functional; settings: CNCTC My 235/80, 336 h
Mycobacterium kansasii [2] = test: Antimycobacterial activity against Mycobacterium kansasii CNCTC My 6509/96 after 21 days by microdilution method; assay type: functional; settings: CNCTC My 6509/96, 504 h
[3] = Cytotoxicity against human HuH7 cells assessed as cell viability after 48 hrs by MTS assay; assay type: cell-based; settings: Huh-7, 48 h
[4] = Cytotoxicity against MDCK2-MDR1 cells assessed as cell viability after 24 hrs by MTS assay; assay type: ADME, cell-based; settings: Canis lupus familiaris, MDCK-II
[5] = Cytotoxicity against human HeLa cells assessed as cell viability at 20 uM after 24 hrs by MTS assay; assay type: cell-based; settings: read-out: Activity
[6] = Chemical stability of compound in DMSO at 100 uM after 1 month by HPLC analysis; assay type: physicochemical; settings: 730.5 h
[7] = Intrinsic clearance in human liver microsomes assessed per mg of protein at 3 uM preincubated for 5 mins followed by NADPH addition by HPLC analysis; assay type: ADME; settings: read-out: CLH
[8] = Aqueous solubility of compound in water with 0.01 to 1% DMSO at 2 to 200 uM by HPLC analysis; assay type: physicochemical
Candida albicans = test: Antifungal activity against Candida albicans ATCC 44859 after 24 to 48 hrs by broth microdilution method; assay type: functional
Nakaseomyces glabratus = test: Antifungal activity against Candida glabrata 20/I after 24 to 48 hrs by broth microdilution method; assay type: functional
Trichosporon asahii = test: Antifungal activity against Trichosporon asahii 1188 after 24 to 48 hrs by broth microdilution method; assay type: functional
Aspergillus fumigatus = test: Antifungal activity against Aspergillus fumigatus 231 after 24 to 48 hrs by broth microdilution method; assay type: functional
Escherichia coli = test: Antibacterial activity against Escherichia coli ATCC 8739 after 24 to 48 hrs by broth microdilution method; assay type: functional
Klebsiella pneumoniae = test: Antibacterial activity against Klebsiella pneumoniae D 11750/08 after 24 to 48 hrs by broth microdilution method; assay type: functional
[9] = test system: Mycobacterium tuberculosis; test: Antimycobacterial activity against non-replicating streptomycin-starved Mycobacterium tuberculosis SS18b-Lux by resazurin reduction microplate assay; assay type: functional, organism-based
[10] = test system: Mycobacterium tuberculosis H37Ra; test: Inhibition of DprE1 in Mycobacterium tuberculosis H37Ra assessed as accumulation of trehalose dimycolate at 0.5 ug/ml preincubated for 24 hrs followed by radiolabeling with [14C]-acetate for 24 hrs by TLC/autoradiographic method
[11] = Cytotoxicity against MDCK2-MDR1 cells assessed as cell viability after 48 hrs by MTS assay; assay type: ADME, cell-based; settings: Canis lupus familiaris, MDCK-II
[12] = Chemical stability of compound in DMSO under open-vessel condition at 4 mg/ml at 60 degC after 3 days by 1H-NMR analysis; assay type: physicochemical; settings: 72 h
PBL [13] = test: Genotoxicity in human PBL at 0.6 to 12 mM by micronucleus test in presence of metabolic activation; assay type: toxicity, cell-based; settings: 12000 µM
PBL [14] = test: Genotoxicity in human PBL at 0.6 to 12 mM by micronucleus test in absence of metabolic activation; assay type: toxicity, cell-based; settings: 12000 µM
PBL [15] = test: Genotoxicity in human PBL at 0.6 to 12 mM by chromosome aberration test in presence of metabolic activation; assay type: toxicity, cell-based; settings: 12000 µM
PBL [16] = test: Genotoxicity in human PBL at 0.6 to 12 mM by chromosome aberration test in absence of metabolic activation; assay type: toxicity, cell-based; settings: 12000 µM

Q: Which MIC99 (Mycobacterium kansasii [1]) does the source give for Cc1ccc(-c2nnc(SCc3cc([N+](=O)[O-])cc([N+](=O)[O-])c3)o2)cc1 here?
A: Its MIC99 is 0.06 µM (≈ 0.0223 µg/mL).

Q: And the MIC99 (Mycobacterium kansasii [2])?
A: Its MIC99 is 0.125 µM (≈ 0.0465 µg/mL).

Q: And the IC50 [3]?
A: The IC50 was over 20 µM.

Q: What about the IC50 [4] of the same molecule?
A: The IC50 was over 20 µM.

Q: What about the viability at 24 h, 20 µM [5] of the same molecule?
A: The viability at 24 h, 20 µM was 87.2%.

Q: What about the Stability [6] of the same molecule?
A: Its Stability is “Stable”.

Q: And the microsomal CLint at 3 µM [7]?
A: Its microsomal CLint at 3 µM is 86 µL/min/mg.

Q: And the solubility kinetic [8]?
A: The solubility kinetic was 0.5 µM (≈ 0.186 µg/mL).

Q: And the MIC80 (Candida albicans)?
A: The MIC80 was over 125 µM.

Q: And the MIC80 (Nakaseomyces glabratus)?
A: Its MIC80 is over 125 µM.

Q: What about the MIC80 (Trichosporon asahii) of the same molecule?
A: Its MIC80 is over 125 µM.

Q: And the MIC50 (Aspergillus fumigatus)?
A: Its MIC50 is over 125 µM.

Q: What about the MIC95 (Escherichia coli) of the same molecule?
A: Its MIC95 is over 125 µM.

Q: What about the MIC95 (Klebsiella pneumoniae) of the same molecule?
A: The MIC95 was over 125 µM.

Q: What about the Activity [9] of the same molecule?
A: The Activity was “Dose-dependent effect”.

Q: And the inhibition [10]?
A: The inhibition was “inactive”.

Q: Which MIC99 (Mycobacterium kansasii [1]) does the source give for O=[N+]([O-])c1cc(CSc2nnc(-c3ccc(Cl)cc3)s2)cc([N+](=O)[O-])c1 here?
A: The MIC99 was 0.5 µM (≈ 0.204 µg/mL).

Q: What about the MIC99 (Mycobacterium kansasii [2]) of the same molecule?
A: Its MIC99 is 0.5 µM (≈ 0.204 µg/mL).

Q: And the IC50 [4]?
A: Its IC50 is over 20 µM.

Q: And the IC50 [11]?
A: The IC50 was over 20 µM.

Q: And the viability at 24 h, 20 µM [5]?
A: Its viability at 24 h, 20 µM is 92.8%.

Q: What about the Stability [6] of the same molecule?
A: Its Stability is “Stable”.

Q: And the Stability [12]?
A: The Stability was “Stable”.

Q: And the microsomal CLint at 3 µM [7]?
A: Its microsomal CLint at 3 µM is 29 µL/min/mg.

Q: What about the solubility kinetic [8] of the same molecule?
A: The solubility kinetic was 0.54 µM (≈ 0.221 µg/mL).

Q: And the Activity (PBL [13])?
A: The Activity was “Non-toxic”.

Q: And the Activity (PBL [14])?
A: Its Activity is “Non-toxic”.

Q: And the Activity (PBL [15])?
A: Its Activity is “Non-toxic”.

Q: And the Activity (PBL [16])?
A: The Activity was “Non-toxic”.

Q: What about the MIC80 (Candida albicans) of the same molecule?
A: The MIC80 was over 125 µM.

Q: What about the MIC80 (Nakaseomyces glabratus) of the same molecule?
A: Its MIC80 is over 125 µM.

Q: And the MIC80 (Trichosporon asahii)?
A: The MIC80 was over 125 µM.

Q: What about the MIC50 (Aspergillus fumigatus) of the same molecule?
A: The MIC50 was over 125 µM.

Q: What about the MIC95 (Escherichia coli) of the same molecule?
A: Its MIC95 is over 125 µM.

Q: What about the MIC95 (Klebsiella pneumoniae) of the same molecule?
A: The MIC95 was over 125 µM.

Q: What about the Activity [9] of the same molecule?
A: Its Activity is “Dose-dependent effect”.

Q: And the inhibition [10]?
A: The inhibition was “inactive”.
